Literature values as cited in US7705031B2 (priority 2003, dated 2010).

Experiments:
neuropathic pain = settings: human, in vivo
NaV1.3 = NaV1.3 (Homo sapiens, UniProt Q9NY46); settings: read-out: TTX IC50
Chain of NaV1.3 (Q9NY46 whole entry, looked up): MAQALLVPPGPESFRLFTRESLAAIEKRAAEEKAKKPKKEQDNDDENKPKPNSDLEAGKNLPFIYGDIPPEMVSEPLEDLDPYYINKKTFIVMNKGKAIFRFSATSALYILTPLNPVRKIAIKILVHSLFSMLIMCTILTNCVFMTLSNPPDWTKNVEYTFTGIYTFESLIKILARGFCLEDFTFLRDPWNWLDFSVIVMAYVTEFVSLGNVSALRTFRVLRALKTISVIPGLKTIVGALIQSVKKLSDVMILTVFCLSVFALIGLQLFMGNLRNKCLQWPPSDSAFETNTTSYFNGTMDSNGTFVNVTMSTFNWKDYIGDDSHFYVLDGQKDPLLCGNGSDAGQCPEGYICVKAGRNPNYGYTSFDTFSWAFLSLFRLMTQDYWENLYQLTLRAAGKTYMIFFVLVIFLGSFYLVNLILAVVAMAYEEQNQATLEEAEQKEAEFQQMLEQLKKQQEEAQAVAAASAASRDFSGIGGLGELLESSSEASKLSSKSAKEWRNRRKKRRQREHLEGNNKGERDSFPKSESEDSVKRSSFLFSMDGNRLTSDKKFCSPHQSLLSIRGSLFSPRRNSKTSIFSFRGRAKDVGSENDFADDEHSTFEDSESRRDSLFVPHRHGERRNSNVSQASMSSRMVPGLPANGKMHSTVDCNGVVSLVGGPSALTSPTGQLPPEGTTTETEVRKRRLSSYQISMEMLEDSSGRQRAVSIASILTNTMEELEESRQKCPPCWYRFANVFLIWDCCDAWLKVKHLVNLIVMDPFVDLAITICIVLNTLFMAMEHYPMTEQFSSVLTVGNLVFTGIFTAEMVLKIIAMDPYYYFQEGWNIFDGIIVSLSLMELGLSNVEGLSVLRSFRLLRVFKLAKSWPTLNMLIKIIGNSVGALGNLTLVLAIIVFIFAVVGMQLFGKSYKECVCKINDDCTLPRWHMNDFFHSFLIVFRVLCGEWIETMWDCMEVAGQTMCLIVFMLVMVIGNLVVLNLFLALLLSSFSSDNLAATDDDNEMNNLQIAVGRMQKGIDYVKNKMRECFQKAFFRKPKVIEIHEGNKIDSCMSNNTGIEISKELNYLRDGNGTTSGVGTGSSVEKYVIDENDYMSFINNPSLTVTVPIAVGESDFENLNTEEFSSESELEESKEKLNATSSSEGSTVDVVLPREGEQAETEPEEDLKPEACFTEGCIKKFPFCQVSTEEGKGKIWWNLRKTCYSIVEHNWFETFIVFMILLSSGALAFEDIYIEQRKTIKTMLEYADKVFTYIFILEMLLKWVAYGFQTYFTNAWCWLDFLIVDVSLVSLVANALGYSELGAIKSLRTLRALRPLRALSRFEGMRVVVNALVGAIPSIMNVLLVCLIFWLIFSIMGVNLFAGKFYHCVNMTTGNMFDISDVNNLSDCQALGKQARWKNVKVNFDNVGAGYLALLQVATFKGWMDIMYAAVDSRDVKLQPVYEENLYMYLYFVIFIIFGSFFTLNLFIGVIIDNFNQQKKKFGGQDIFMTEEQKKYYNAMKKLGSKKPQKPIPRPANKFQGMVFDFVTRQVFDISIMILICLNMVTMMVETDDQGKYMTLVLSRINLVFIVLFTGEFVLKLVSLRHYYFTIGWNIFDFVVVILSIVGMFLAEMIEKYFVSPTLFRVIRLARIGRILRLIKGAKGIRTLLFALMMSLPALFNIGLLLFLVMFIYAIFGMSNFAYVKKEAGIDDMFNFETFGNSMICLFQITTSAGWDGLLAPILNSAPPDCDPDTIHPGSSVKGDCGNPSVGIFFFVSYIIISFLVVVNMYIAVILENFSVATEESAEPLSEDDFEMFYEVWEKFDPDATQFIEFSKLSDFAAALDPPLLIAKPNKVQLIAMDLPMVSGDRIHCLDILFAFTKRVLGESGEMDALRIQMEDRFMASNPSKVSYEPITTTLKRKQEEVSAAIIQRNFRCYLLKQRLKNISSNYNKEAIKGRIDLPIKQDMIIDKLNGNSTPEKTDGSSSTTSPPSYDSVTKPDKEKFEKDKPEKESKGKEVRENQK

For `NCC1(CC(=O)O)CCCCC1` [Gabapentin], the “share of patients in whom the drug works” value (neuropathic pain) is given as 60%.

In the case of `NC1=N[C@H](O)[C@H]2[C@H]3O[C@]4(O)O[C@@H]([C@@H](O)[C@@]2(N1)[C@@H]4O)[C@]3(O)CO` [TTX, tetrodotoxin], the IC50 (NaV1.3) is given as 0.015 µM.
